Measurements taken from paper PMC6050476, “Pre-clinical Pharmacokinetic and Metabolomic Analyses of Isorhapontigenin, a Dietary Resveratrol Derivative” (Frontiers in Pharmacology, 2018).

Columns and labels:
[1] = Body weight before and after 1-week ISO intervention; format: in vivo, Sprague-Dawley rats; details: 1-week daily oral ISO 100 μmol/kg, normal diet; p = 0.74 and 0.89
Protocol: (§1) Twenty-two rats were divided into four groups. Group 1 (n = 5) received a single bolus intravenous injection of ISO at the dose of 90 μmol/kg (23.2 mg/kg). Serial blood samples were collected before dosing and at 5, 15, 30, 60, 90, 120, 180, 240, 300, 420, 540, and 720 min after intravenous injection. Group 2 (n = 5) received a single oral administration of ISO at the dose of 200 μmol/kg (51.6 mg/kg). Serial blood samples were collected before dosing and at 15, 30, 45, 60, 90, 120, 180, 240, 300, 420, 540, and 720 min after oral gavage. Group 3 (n = 5) received daily oral pre-treatment of oral dosing vehicle (2 mL/kg) while Group 4 (n = 7) received daily oral pre-treatment of ISO at the dose of 100 μmol/kg (25.8 mg/kg) for 1 week. On day 7, ∼8–10 h after the last pre-treatment dose, surgery was performed on rats in Groups 3 and 4 for jugular vein cannulation, and blood samples were also collected from Groups 3 and 4 for metabolomic study. On day 8, the pharmacokinetic study was carried out on these two groups of animals at the dose of 100 μmol/kg (25.8 mg/kg) using the same blood sampling schedule as Group 2.
One-week daily oral dosing of ISO decreased plasma levels of some di-aminoacid and N-acetyl amino acids such as glycyl-glycine, N-acetyl-glycine, N-acetyl-glutamine, and N-acetyl-orthinine. […] In this study, the healthy Sprague-Dawley rats were fed with normal diet. […]

[2] = Stock solution stability of isorhapontigenin; format: physicochemical; details: 24 °C, 10 days; stock solution in DMSO
Protocol: Stock solutions of ISO were prepared by dissolution in DMSO and they were stored at room temperature. The stock solutions were further diluted using blank rat plasma to prepare the calibration standards and QC samples. The stock solution of IS was dissolved in acetonitrile to a concentration of 10 μg/mL. 100 μL IS solution was aliquoted into 1.5-mL polypropylene tubes for storage at −80°C. During sample preparation, this solution was further diluted to the working concentration of 10 ng/mL using acetonitrile containing 0.18 μM of disodium EDTA and stored at 4°C.
The dilution integrity was confirmed using a dilution factor of 20. In the presence of L-ascorbic acid (0.8 mg/mL), ISO appeared to stable in plasma; similarly, addition of EDTA in IS acetonitrile solution (0.18 μM) enhanced the post-preparative stability. The details in accuracy, precision, stability, and matrix effect can be found in Supplementary Tables S1–S3.

[3] = Plasma pharmacokinetics of isorhapontigenin in Sprague-Dawley rats (LC–MS/MS); format: in vivo; details: rat
Protocol: This in vivo study was conducted with strict adherence to the “Guidelines on the Care and Use of Animals for Scientific Purposes” (Singapore). The pharmacokinetic study design and animal handling procedures were reviewed and approved by the Institutional Animal Care and Use Committee of the National University of Singapore (NUS; R15-1273). All animal experiments were carried out in a specific pathogen-free animal facility (temperature: 22 ± 1°C; humidity: 60–70%) in Comparative Medicine, NUS. Sprague-Dawley rats (male, 9–10 weeks old, weight: 300–350 g) were purchased from InVivos (Singapore). The rats were housed under a 12 h light–dark cycle with free access to food and water. On the day before the pharmacokinetic study, surgery was performed under isoflurane anesthesia and a catheter (polyethylene tube, i.d. = 0.580 mm, o.d. = 0.965 mm, Becton Dickinson, Sparks, MD, United States) was implanted into the right jugular vein. Intravenous ISO administration and blood collection were carried out via this cannula. To prevent cross-contamination and blood clotting, ∼0.3 mL heparin-saline (10 I.U./mL) was flushed through the cannula after intravenous dosing or each blood collection. This reliable pharmacokinetic model has been routinely used in our laboratory to assess the pharmacokinetic profiles of resveratrol and its derivatives ([Yeo et al., 2013a],[b], [2017]; [Choo et al., 2014]; [Chen et al., 2015], [2016b],[c]; [Dai et al., 2018]).
0.3 M HP-β-CD was used to formulate ISO into a solution for intravenous injection while 0.3% CMC (w/v) was applied as a suspending vehicle for oral delivery ([Yeo et al., 2017]). To enhance the stability of ISO, L-ascorbic acid (final concentration: 0.1 mg/mL) was spiked into both intravenous and oral formulations ([Yeo et al., 2017]). The concentrations of ISO in intravenous and oral formulations were 5 and 13.3 mg/mL, respectively.
as §1
All blood samples during the pharmacokinetic study were collected in heparinized tubes containing L-ascorbic acid (final concentration = 0.8 mg/mL) to ensure stability of ISO ([Yeo et al., 2017]). The samples were centrifuged at 5000 g for 5 min, and the plasma was harvested and stored at −40°C until LC–MS/MS analysis.
The LC–MS/MS analysis was carried out using an Agilent 1290 Infinity Liquid Chromatography system (Agilent Technologies, Santa Clara, CA, United States), which is coupled to an ABSciex QTRAP® 5500 mass spectrometer (AB Sciex, Framingham, MA, United States) and equipped with a TurboIon Spray probe (AB Sciex). The LC–MS/MS system was controlled by the Analyst 1.5.2 software (AB Sciex) and chromatographic data analysis was performed using the same software. […]

[4] = Group 1, single intravenous 90 μmol/kg, HP–β–CD
[5] = Group 2, single oral 200 μmol/kg, suspension
[6] = Group 3, oral 100 μmol/kg after 1-week vehicle pre-treatment, suspension
[7] = Group 4, oral 100 μmol/kg after 1-week daily oral ISO 100 μmol/kg pre-treatment, suspension
[8] = male, Sprague-Dawley, plasma, po, 100 umol/kg, Group 3, oral 100 μmol/kg after 1-week vehicle pre-treatment, suspension
[9] = male, Sprague-Dawley, plasma, po, 100 umol/kg, Group 4, oral 100 μmol/kg after 1-week daily oral ISO 100 μmol/kg pre-treatment, suspension
[10] = male, Sprague-Dawley, plasma, po, 200 umol/kg, Group 2, single oral 200 μmol/kg, suspension
[11] = single intravenous 90 μmol/kg, resveratrol data ref Chen et al., 2016c
[12] = single oral 200 μmol/kg, resveratrol data ref Chen et al., 2016c

Compound: COc1cc(/C=C/c2cc(O)cc(O)c2)ccc1O [isorhapontigenin, trans-3,5,4′-trihydroxy-3′-methoxystilbene]
- body weights, vehicle vs ISO treatment group, before and after ISO intervention [1]: remained similar
- Stock solution stability (% remaining) [2]: 96.7 ± 3.0 % remaining
- AUC0→last /Dose [3, 4]: 14.2 ± 5.2 kg⋅min/L
- V [3, 4]: 0.893 ± 0.103 L/kg
- AUC0→last /Dose [3, 5]: 4.28 ± 0.94 kg⋅min/L
- Cmax /Dose [3, 5]: 27800 ± 3200 µg/mL
- AUC0→last /Dose [3, 6]: 2.54 ± 0.69 kg⋅min/L
- Cmax /Dose [3, 6]: 29200 ± 2800 µg/mL
- AUC0→last /Dose [3, 7]: 2.97 ± 0.80 kg⋅min/L
- Cmax /Dose [3, 7]: 23900 ± 6200 µg/mL
- clearance ([3]; male, Sprague-Dawley, plasma, 90 umol/kg, Group 1, single intravenous 90 μmol/kg, HP–β–CD): 76.8 ± 23.7 mL/min/kg
- Tmax ([3]; male, Sprague-Dawley, plasma, 100 umol/kg, Group 3, oral 100 μmol/kg after 1-week vehicle pre-treatment, suspension): 0.25 h
- Tmax ([3]; male, Sprague-Dawley, plasma, 200 umol/kg, Group 2, single oral 200 μmol/kg, suspension): 0.25 to 0.75 h
- MRT ([3]; male, Sprague-Dawley, plasma, iv, 90 umol/kg, Group 1, single intravenous 90 μmol/kg, HP–β–CD): 0.313 h
- MRT [3, 8]: 2.27 h
- bioavailability [3, 8]: 17.9 ± 4.9%
- MRT [3, 9]: 3.03 h
- bioavailability [3, 9]: 20.8 ± 5.6%
- MRT [3, 10]: 3.07 h
- bioavailability [3, 10]: 30.1 ± 6.6%
- CL relative to resveratrol [3, 11]: comparable to resveratrol
- V relative to resveratrol [3, 11]: comparable to resveratrol
- average MRT longer than resveratrol [3, 11]: ~70%
- time ISO remained measurable in the systemic circulation after administration ([3]; single oral 100 μmol/kg): at least 12 h
- F relative to resveratrol [3, 12]: two to three folds greater
- dose normalized AUC0→t (AUC0→t/Dose) relative to resveratrol [3, 12]: two to three folds greater
- dose normalized Cmax (Cmax/Dose) relative to resveratrol [3, 12]: two to three folds greater
